Format in all cases: in vivo
In one assay the test system is Amaranthus retroflexus. Put plainly: greenhouse post-emergence herbicidal test, AMARE. The source says:
(§1) The culture containers used were plastic flowerpots containing loamy sand with approximately 3.0% of humus as the substrate. The seeds of the test plants were sown separately for each species.
(§2) For the pre-emergence treatment, the active ingredients, which had been suspended or emulsified in water, were applied directly after sowing by means of finely distributing nozzles. The containers were irrigated gently to promote germination and growth and subsequently covered with transparent plastic hoods until the test plants had rooted. This cover caused uniform germination of the test plants, unless this had been impaired by the active ingredients. For the post-emergence treatment, the test plants were first grown to a height of 3 to 15 cm, depending on the plant habit, and only then treated with the active ingredients which had been suspended or emulsified in water. For this purpose, the test plants were either sown directly and grown in the same containers, or they were first grown separately as seedlings and transplanted into the test containers a few days prior to treatment.
(§3) Depending on the species, the test plants were kept at 10 - 25° C. or 20 - 35° C., respectively. The test period extended over 2 to 4 weeks. During this time, the test plants were tended, and their response to the individual treatments was evaluated.
(§4) Evaluation was carried out using a scale from 0 to 100. 100 means no emergence of the test plants, or complete destruction of at least the aerial moieties, and 0 means no damage, or normal course of growth. A good herbicidal activity is given at values of at least 70 and a very good herbicidal activity is given at values of at least 85.

A further assay concerns Setaria viridis. Put plainly: greenhouse post-emergence herbicidal test, SETVI.
Excerpt: as §1, §2, §3, §4

The subject of a further assay is Chenopodium album. In words: greenhouse post-emergence herbicidal test, CHEAL.
Excerpt: as §1, §2, §3, §4

A further assay relates to Avena fatua. In words: greenhouse post-emergence herbicidal test, AVEFA. The following applies: application rate 2 g/ha, scale from 0 to 100.
Excerpt: as §1, §2, §3, §4

The next assay concerns Lolium multiflorum. In words: greenhouse post-emergence herbicidal test, LOLMU. Particulars: scale from 0 to 100.
Excerpt: as §1, §2, §3, §4

The subject of the next assay is Echinocloa crus-galli. In words: greenhouse post-emergence herbicidal test, ECHCG. The following applies: scale from 0 to 100.
Excerpt: as §1, §2, §3, §4

For another assay, the system named is Alopecurus myosuroides. Put plainly: greenhouse post-emergence herbicidal test, ALOMY. The following applies: scale from 0 to 100.
Excerpt: as §1, §2, §3, §4

[1] abbreviates: application rate 16 g/ha, AMARE, scale from 0 to 100, read-out: herbicidal activity.
The mark [2] stands for this setting: application rate 16 g/ha, SETVI, scale from 0 to 100, read-out: herbicidal activity.
[3] abbreviates: application rate 16 g/ha, CHEAL, scale from 0 to 100, read-out: herbicidal activity.

SMILES strings stand for the structures. Where two headings read alike, the source gives them in different places.

`C=CCOC(=O)C(OC)Oc1ccccc1Oc1cc(-n2c(=O)cc(C(F)(F)F)n(C)c2=O)c(F)cc1Br` (racemic) [example 4, allyl rac-2-[2-[2-bromo-4-fluoro-5-[3-methyl-2,6-dioxo-4-(trifluoromethyl)pyrimidin-1-yl]phenoxy]phenoxy]-2-methoxy-acetate]: the pest or weed control at 16 g/ha with Amaranthus retroflexus (setting [1]), with Setaria viridis (setting [2]) and with Chenopodium album (setting [3]) was > 85% in each case.
Consider `C#CCOC(=O)C(OC)Oc1ccccc1Oc1cc(-n2c(=O)cc(C(F)(F)F)n(C)c2=O)c(F)cc1Br` (racemic) [example 5, prop-2-ynyl rac-2-[2-[2-bromo-4-fluoro-5-[3-methyl-2,6-dioxo-4-(trifluoromethyl)pyrimidin-1-yl]phenoxy]phenoxy]-2-methoxy-acetate], for which the pest or weed control at 16 g/ha in the assay on Amaranthus retroflexus (setting [1]), with Setaria viridis (setting [2]) and with Chenopodium album (setting [3]) was > 85% in each case.
Regarding `COCCOC(=O)C(OC)Oc1ccccc1Oc1cc(-n2c(=O)cc(C(F)(F)F)n(C)c2=O)c(F)cc1Br` (racemic) [example 6, 2-methoxyethyl rac-2-[2-[2-bromo-4-fluoro-5-[3-methyl-2,6-dioxo-4-(trifluoromethyl)pyrimidin-1-yl]phenoxy]phenoxy]-2-methoxy-acetate], the pest or weed control at 16 g/ha in the assay with Amaranthus retroflexus (setting [1]) was > 85%; with Setaria viridis (setting [2]) it was > 70%; in the assay with Chenopodium album (setting [3]), > 70%.
As for `COC(Oc1ccccc1Oc1cc(-n2c(=O)cc(C(F)(F)F)n(C)c2=O)c(F)cc1Br)C(=O)NS(C)(=O)=O` (racemic) [example 8, rac-2-[2-[2-bromo-4-fluoro-5-[3-methyl-2,6-dioxo-4-(trifluoromethyl)pyrimidin-1-yl]phenoxy]phenoxy]-2-methoxy-N-methylsulfonyl-acetamide], the pest or weed control at 16 g/ha in the assay on Amaranthus retroflexus (setting [1]), with Setaria viridis (setting [2]) and in the assay on Chenopodium album (setting [3]) was > 85% in each case.
Regarding `COC(=O)C(Oc1ccccc1Oc1cc(-n2c(=O)cc(C(F)(F)F)n(C)c2=O)c(F)cc1Br)SC` (racemic) [example 9, methyl rac-2-[2-[2-bromo-4-fluoro-5-[3-methyl-2,6-dioxo-4-(trifluoromethyl)pyrimidin-1-yl]phenoxy]phenoxy]-2-methylsulfanyl-acetate], the pest or weed control at 16 g/ha in the assay with Amaranthus retroflexus (setting [1]), in the assay on Setaria viridis (setting [2]) and with Chenopodium album (setting [3]) was > 85% in each case.
As for `CCOC(=O)C(F)Oc1ccccc1Oc1cc(-n2c(=O)cc(C(F)(F)F)n(C)c2=O)c(F)cc1Br` (racemic) [example 10, ethyl rac-2-[2-[2-bromo-4-fluoro-5-[3-methyl-2,6-dioxo-4-(trifluoromethyl)pyrimidin-1-yl]phenoxy]phenoxy]-2-fluoro-acetate], the pest or weed control at 16 g/ha with Amaranthus retroflexus (setting [1]), in the assay with Setaria viridis (setting [2]) and in the assay on Chenopodium album (setting [3]) was > 85% in each case.
Regarding `COC(=O)C(OC)Oc1ccccc1Oc1cc(-n2c(=O)c(C)c(C(F)(F)F)n(C)c2=O)c(F)cc1Br` (racemic) [example 11, methyl rac-2-[2-[2-bromo-5-[3,5-dimethyl-2,6-dioxo-4-(trifluoromethyl)pyrimidin-1-yl]-4-fluoro-phenoxy]phenoxy]-2-methoxy-acetate], the pest or weed control at 16 g/ha in the assay with Amaranthus retroflexus (setting [1]), with Setaria viridis (setting [2]) and in the assay with Chenopodium album (setting [3]) was > 85% each time.
As for `COC(=O)C(OC)Oc1ncccc1Oc1cc(-n2c(=O)cc(C(F)(F)F)n(C)c2=O)c(F)cc1Br` (racemic) [example 12, methyl rac-2-[[3-[2-bromo-4-fluoro-5-[3-methyl-2,6-dioxo-4-(trifluoromethyl)pyrimidin-1-yl]phenoxy]-2-pyridyl]oxy]-2-methoxy-acetate], the pest or weed control at 16 g/ha in the assay with Amaranthus retroflexus (setting [1]) and in the assay on Chenopodium album (setting [3]) was > 85% in each case.
Consider `COC(=O)C(OC)Oc1ccccc1Oc1cc(-n2c(=O)cc(C(F)(F)F)n(C)c2=O)c(F)cc1Cl` (centres unmarked) [cmpd 3 (WO 11/137088)], for which the damages with Avena fatua came out at 65; in the assay on Lolium multiflorum (application rate 4 g/ha), 60; in the assay on Lolium multiflorum (application rate 8 g/ha), 75; with Echinocloa crus-galli (application rate 1 g/ha) it was 45; in the assay with Echinocloa crus-galli (application rate 2 g/ha), 90; in the assay on Alopecurus myosuroides (application rate 4 g/ha), 75. In addition, the damages with Alopecurus myosuroides (application rate 8 g/ha) is given as 80.
On to `COC(=O)C(OC)Oc1ccccc1Oc1nc(-n2c(=O)cc(C(F)(F)F)n(C)c2=O)c(F)cc1Br` (centres unmarked) [cmpd I.a.646 (WO 17/202768)], for which the damages in the assay with Avena fatua came to 40; in the assay with Lolium multiflorum (application rate 4 g/ha), 60; with Lolium multiflorum (application rate 8 g/ha), 65; with Echinocloa crus-galli (application rate 1 g/ha), 25; with Echinocloa crus-galli (application rate 2 g/ha) it was 65; in the assay with Alopecurus myosuroides (application rate 4 g/ha), 50. In the assay on Alopecurus myosuroides (application rate 8 g/ha), the damages was found to be 70.
Consider `COC(=O)C(OC)Oc1ccccc1Oc1cc(-n2c(=O)cc(C(F)(F)F)n(C)c2=O)c(F)cc1Br` (centres unmarked) [example 1, Methyl 2-[2-[2-bromo-4-fluoro-5-[3-methyl-2,6-dioxo-4-(trifluoromethyl)pyrimidin-1-yl]phenoxy]phenoxy]-2-methoxy-acetate], for which the pest or weed control at 16 g/ha with Amaranthus retroflexus (read-out: herbicidal activity), in the assay with Setaria viridis (read-out: herbicidal activity) and in the assay with Chenopodium album (read-out: herbicidal activity) was > 85% each time. Also, the damages in the assay on Avena fatua came to 85; in the assay with Lolium multiflorum (application rate 4 g/ha) it was 75; in the assay on Lolium multiflorum (application rate 8 g/ha), 85; in the assay with Echinocloa crus-galli (application rate 1 g/ha), 90; in the assay on Echinocloa crus-galli (application rate 2 g/ha), 98; in the assay with Alopecurus myosuroides (application rate 4 g/ha), 95. The compound also showed a damages in the assay with Alopecurus myosuroides (application rate 8 g/ha) of 95.

These data come from patent US20230157289A1, “HERBICIDAL PHENYLURACILS” (BASF-SE, priority 2020, published 2023).
